Results on two compounds are retold here after patent publication US11072806B2, “Gadusol production” (Oregon State University, priority 2018, dated 2021).

In series [1] the test system is wild-type RAD1 strain (S288c). Kind of series: UVB irradiation of wild-type (RAD1) yeast strain suspended in gadusol-containing supernatant. The format is cell-based, S. cerevisiae. The note with it: higher doses of UVB; cells in 9-fold concentrated supernatant. The source says:
(§1) While it would be possible to harvest gadusol from naturally occurring sources, this would not be economical for producing the quantities of gadusol needed for commercially relevant sunscreen products. To overcome this and other problems, the inventors have developed methods and compositions that allow for the high efficiency production of gadusol in microorganism host cells, such as yeast. Expressing the biosynthetic genes for gadusol in microorganisms, such as yeast, provides an opportunity to leverage in-depth knowledge of yeast biochemistry to generate a sustainable process. […] The mutant was cultured in YNB+2% glucose supplemented with leucine and lysine at 30° C. for 2 days. […] In 20 ml cultures (n=3), the recombinant yeast culture produced approximately 20 mg/I of gadusol after 5 days (FIG. 34). […] Large-scale production allows for the use of gadusol in pharmaceuticals, formulations, cosmetics or dietary formulations and products. By way of example, formulations may include pills/capsules, creams, lotions, or the like. In embodiments, the present disclosure provides for a synthetic gadusol having UV-protective activity. […] Cells were then irradiated with UVB and spotted in 3 μl aliquots (n=4) onto YEPD plates which were incubated at 30° C. for 24 h. […]

For series [2] the following is noted: in vitro; cited from earlier work.
For series [3] the following is noted: cited from earlier work; for λmax: enol form at lower pH, enolate form at neutral and basic pH.
For a further series, the system named is rad1Δ yeast mutant. Briefly: UVB irradiation of UVB-sensitive rad1Δ yeast mutant suspended in gadusol-containing supernatant. The format is cell-based, S. cerevisiae. The note with it: cells at 10^7 cells/mL in 9-fold concentrated supernatant, UVB (302 nm), spotted on YEPD, 24 h at 30° C.
Excerpt: as §1

[4] abbreviates: Arbeloa et al. 2011, at respective absorbance maxima.

Molecules are shown by their SMILES. Read-outs that look alike come from different tables or passages of the source.

On to `COC1=C(O)CC(O)(CO)C(O)C1=O` (stereo not shown) [gadusol, 3,5,6-trihydroxy-5-hydroxymethyl-2-methoxycyclohex-2-en-1-one], for which the “UVB tolerance of wild-type (RAD1) strain” value in series [1] is “increases UVB tolerance”. The antioxidant activity entry in series [2] is given as “exhibit antioxidant activity in vitro”. The extinction coefficient in series [3] (setting [4]) is recorded as 12,400 M^−1 cm^−1; in series [3] (pH 7 in 50 mM phosphate, Plack et al. 1981) it was 21,800 M^−1 cm^−1. Besides, in series [3] (Plack et al. 1981), the λmax is given as 269 nm. Moreover, the “UVB sensitivity of rad1Δ yeast mutant” value in the series on rad1Δ yeast mutant was “suppresses the UVB sensitivity”.

For the compound `COC1=C(O)CC(O)(CO)C(O)C1=O` (stereo not shown) [gadusolate], in series [3] (setting [4]), the extinction coefficient was 21,800 M^−1 cm^−1. Besides, the “quantum yield of photodecomposition relative to gadusol” value in series [3] (Arbeloa et al. 2011) was 260 times. Moreover, the photostability result in series [3] (compared to gadusol) is listed as “more photostable”. Also, in series [3] (Plack et al. 1981), the λmax is reported as 296 nm.
